Measured values taken from article PMC7830570, “Substrate Scope for Human Histone Lysine Acetyltransferase KAT8” (International Journal of Molecular Sciences, 2021).

How the values were obtained:
[1] = target: T1, human KAT8 (residues 125–458) (Homo sapiens, UniProt Q9H7Z6); assay: MALDI-TOF MS kinetics assay of KAT8-catalysed acetylation under steady-state conditions; type: biochemical; settings: pH 7.4, 37 °C
T1 construct: Recombinant human KAT8 (residues 125–458) was expressed in E. coli; His tag; made in house; host or cells: E. coli
T1 sequence (Q9H7Z6 125-458): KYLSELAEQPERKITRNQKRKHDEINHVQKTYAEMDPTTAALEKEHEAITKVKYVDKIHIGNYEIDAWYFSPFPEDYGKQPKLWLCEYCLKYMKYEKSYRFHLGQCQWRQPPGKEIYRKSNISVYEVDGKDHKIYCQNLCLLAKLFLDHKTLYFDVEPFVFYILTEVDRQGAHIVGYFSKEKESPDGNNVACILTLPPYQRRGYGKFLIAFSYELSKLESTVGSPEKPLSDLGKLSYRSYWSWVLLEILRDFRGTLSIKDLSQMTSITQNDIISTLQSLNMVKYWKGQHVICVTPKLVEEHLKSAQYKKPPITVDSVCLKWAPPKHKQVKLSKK
Protocol: Next, we investigated the catalytic efficiencies for the histone peptides that were observed as KAT8 substrates. Kinetics analyses were carried out under steady-state conditions by incubating saturating concentrations of AcCoA against different concentrations of histone peptides.
Histone peptides kinetics evaluation was carried out with a MALDI-TOF MS assay under steady-state conditions as previously described. Briefly, dilution series of H4K*16 peptides (1050 or 700–0 µM) were incubated with AcCoA (100 µM; > 5 x KM value of AcCoA) and the reactions were started by the addition of KAT8 (570 nM) in kinetic buffer (50 mM HEPES, 0.1 mM EDTA, 0.01% TRITON-X, pH = 7.4). AcCoA stock solutions in Milli-Q water were calibrated using a NanoDrop 2000 spectrophotometer (Thermo Scientific, Waltham, MA, USA), with molar extinction coefficient ε260nm = 16,400 M^−1 cm^−1. Reactions were incubated for 20 min at 37 °C, shaken at 750 rpm and quenched with TFA 10% in Milli-Q water at different time points within the linear production of acetylated peptides. Quantification of the acetylated peptide produced was extrapolated, at any concentration point, with FlexAnalysis software, considering all the ionic species. Kinetic parameters were obtained by fitting V0 values and histone peptide concentrations to the Michaelis–Menten equation using the GraphPad Prism 5 software. Kinetic experiments were carried out in replicates (n = 2 or 3) and final values are reported as the mean value ± SD.

[2] = target: T1, human KAT8 (residues 125–458); assay: MALDI-TOF MS enzymatic assay of KAT8-catalysed acetylation of H4K*16 histone peptides; type: biochemical; settings: standard conditions: 2 µM KAT8, 100 µM histone peptide, 300 µM AcCoA, 50 mM HEPES, 0.1 mM EDTA, 1 mM DTT, pH 8.0, 37 °C
Protocol: The biocatalytic potential of KAT8 was assessed through a MALDI-TOF MS based enzymatic assay. Human KAT8 was incubated in the presence of H4K*16 peptides and AcCoA under “standard conditions” (2 µM KAT8, 100 µM histone peptide, 300 µM AcCoA; assay buffer: 50 mM Hepes, 0.1 mM EDTA, 1 mM DTT, pH = 8.0) and the production of acetylated peptides was monitored at different time points. […] KAT8-catalysed acetylation of H4K16 was quantitative after 1 h, in line with previous findings (Figure 3a and Figure S17). […] This is an interesting observation, given the well-documented capacity of some histone lysine methyltransferases (KMTs) that introduce higher methylation states (i.e., Kme2 and Kme3) on histone tails starting from Kme as a substrate. […]
KAT8 enzymatic activity towards H4K*16 histone peptides was measured at different time points under standard conditions (2 µM KAT8, 100 µM peptide, 300 µM AcCoA) in reaction buffer (50 mM HEPES, 0.1 mM EDTA, 1 mM DTT, pH = 8.0) as previously described The reactions were performed in a final volume of 50 µL and shaken at 37 °C, using a Thermomixer C (750 rpm). KAT8 activity was stopped at a given time point by the addition of TFA 10% in Milli-Q water, and reactions were analysed by MALDI-TOF MS employing α-Cyano-4-hydroxycinnamic acid (CHCA) matrix.

[3] = target: T1, human KAT8 (residues 125–458); settings: lysine analogue on histone peptide; cited from earlier work
Protocol: The biocatalytic potential of KAT8 was assessed through a MALDI-TOF MS based enzymatic assay. Human KAT8 was incubated in the presence of H4K*16 peptides and AcCoA under “standard conditions” (2 µM KAT8, 100 µM histone peptide, 300 µM AcCoA; assay buffer: 50 mM Hepes, 0.1 mM EDTA, 1 mM DTT, pH = 8.0) and the production of acetylated peptides was monitored at different time points. […] KAT8-catalysed acetylation of H4K16 was quantitative after 1 h, in line w ... || Subsequently, we investigated the role of the geometrically constrained and steric lysine analogues for KAT8 catalysis. The KAT8-catalysed reaction of H4KE16 produced 64% of acetylated peptide after 1 h, and reached completion within 3 h (Figure 3i and Figure S17).

Substance	kcat^app ([1]; 570 nM KAT8, 100 µM AcCoA, peptide 1050 or 700–0 µM, 50 mM HEPES, 0.1 mM EDTA, 0.01% TRITON-X, mean ± SD, n = 2 or 3, SD)	Km ([1]; 570 nM KAT8, 100 µM AcCoA, peptide 1050 or 700–0 µM, 50 mM HEPES, 0.1 mM EDTA, 0.01% TRITON-X, mean ± SD, n = 2 or 3, SD, read-out: KM^app)	kcat^app/KM^app ([1]; catalytic efficiency from kcat^app and KM^app)	acetylated peptide produced after 1 h [2]	KAT8 substrate quality [3]
GGAK16RHRKVLRDNIQ [H4K16, histone H4 peptide, residues 13–27, with natural lysine at position 16]	0.25 ± 0.013 s⁻¹	437 ± 107 µM	567 M⁻¹ s⁻¹	quantitative	
γ-thialysine					excellent substrate
homolysine [hK]					good KAT8 substrate
